{"source": "patent US20200360331A1", "about": "“COMPOSITIONS COMPRISING 15-HEPE AND/OR 15-HETrE AND METHODS OF TREATING OR PREVENTING CARDIOMETABOLIC DISEASE, METABOLIC SYNDROME, AND/OR RELATED DISEASES” (Afimmune Limited, priority 2019, published 2020)", "key": {"[1]": {"experiment": "UUO study: body weight, kidney weight, general condition", "type": "in vivo", "conditions": "UUO mice", "experimental": "UUO Surgery: On day 0 of the study, UUO surgery was performed on mice under pentobarbital sodium anesthesia. The mouse's hair was first shaved and then abdomen cut open to exteriorize the mouse's left ureter. The ureter was ligated 4-0 nylon sutures at two points. The mouse's peritoneum and skin were then closed with sutures, and the mouse transferred to a clean cage until recovered from the anesthesia. Sham operated mice had their left ureter exposed but not ligated. […]\nAnimals: Seven-week-old female C57BL/6 mice (i.e., animals) were obtained from Japan SLC, Inc. (Japan) and were housed and fed with a normal diet (CE-2; CLEA Japan, Japan) under controlled conditions. The animals were maintained in a specific-pathogen free (SPF) facility under controlled conditions of temperature (e.g., 23±2° C.), humidity (e.g., 45±10%), lighting (e.g., 12-hour artificial light and dark cycles; light from 8:00 to 20:00) and air exchange. A high pressure was maintained in the experimental room to prevent contamination of the facility. The animals were housed in TPX cages (CLEA Japan) with a maximum of 4 mice per cage. Sterilized Paper-Clean (Japan SLC) was used for bedding and replaced once a week. Sterilized solid normal diet was provided ad libitum, being placed in a metal lid on the top of the cage. Pure water was also provided ad libitum from a water bottle equipped with a rubber stopper and a sipper tube. Water bottles were replaced once a week, cleaned, and sterilized in an autoclave and reused. Mice were identified by ear punch and each cage was labeled with a specific identification code.\nAnimal Monitoring and Sacrifice: The viability, clinical signs and behavior for the mice were monitored daily. Individual body weight was measured daily before treatment during the treatment period. […] The animals were sacrificed by exsanguination through direct cardiac puncture under isoflurane anesthesia (Pfizer Inc.) at Day 14."}, "[2]": {"system": "NAFLD patients", "experiment": "Phase IIa NAFLD study: lipid profile", "type": "in vivo, human", "conditions": "for Triglycerides (median placebo-corrected % change from baseline): 2 g", "source_text": "Exploratory analysis: The exploratory analysis included analysis of lipid and metabolic parameters including total cholesterol, triglycerides, very low-density lipoprotein cholesterol (VLDL-C), low density lipoprotein cholesterol (LDL-C), high density lipoprotein cholesterol (HDL-C), non-high-density lipoprotein cholesterol (non-HDL-C), remnant-like particle cholesterol (RLP-C), fasting glucose, insulin, free fatty acids and hemoglobin A1C (HbA1C). Additional exploratory analysis included high throughput lipidomics and proteomics.\nThe study was planned to include 96 evaluable patients with 32 patients randomized per treatment group.\nClinical Laboratory Safety Tests: Safety tests were performed for hematology, serum biochemistry, coagulation, lipid profile, and urinalysis: Blood and urine samples were taken as per the Study Flow Chart in Table 19 for routine hematology, serum biochemistry, coagulation and urinalysis tests, along with a Lipid Profile. All samples were analyzed in the central laboratory. All subjects were fasted for a minimum of 8 hours prior to blood sampling. If subjects had not fasted for a minimum of 8 hours, the duration of fasting time was recorded, and subjects encouraged to fast appropriately for the next clinical visit. • Hematology: Full blood count to include red cell count, hemoglobin, hematocrit, white cell count, differential white cell count, platelet count and reticulocyte count. • Serum biochemistry: Urea (blood urea nitrogen; BUN), creatinine, uric acid, total bilirubin, Indirect and Direct Bilirubin, sodium, bicarbonate potassium, phosphorus, calcium chloride, alkaline phosphatase (ALP), aspartate aminotransferase (AST), alanine aminotransferase (ALT), ALT/AST ratio, lactate dehydrogenase (LDH), creatine phosphokinase (CPK), albumin, total protein, cholesterol, triglycerides, glucose, C-reactive protein (CRP). • Coagulation: prothrombin time (PT), international normalized ratio (INR) and activated partial […]. • Lipid Profile: LDL, HDL, and VLDL-C. • Urinalysis: pH, protein, glucose, blood, ketones, leukocytes, leukocyte esterase, bilirubin, specific gravity, urobilinogen and nitrate. Reflex micro if blood, protein, leukocyte esterase or nitrate/nitrite are present."}, "[3]": {"system": "UUO mice", "experiment": "UUO study: Sirius red staining of kidney sections, fibrosis area", "type": "in vivo, C57BL/6 mice", "conditions": "for fibrosis area compared with the Vehicle group: Mann-Whitney U test (p<0.1); for Sirius red-positive area / Sirius red-positive area (%) _Median: kidney", "experimental": "UUO Surgery: On day 0 of the study, UUO surgery was performed on mice under pentobarbital sodium anesthesia. The mouse's hair was first shaved and then abdomen cut open to exteriorize the mouse's left ureter. The ureter was ligated 4-0 nylon sutures at two points. The mouse's peritoneum and skin were then closed with sutures, and the mouse transferred to a clean cage until recovered from the anesthesia. Sham operated mice had their left ureter exposed but not ligated.\nHistopathological analysis: To visualize collagen deposition, kidney sections were stained using picro-Sirius red solution (Waldeck, Germany). For quantification of interstitial fibrosis area, bright field images in the corticomedullary region were captured using a digital camera (e.g., DFC295; Leica Microsystems, Germany) at 200-fold magnification, and the positive areas in 5 fields/section were measured using ImageJ software (National Institute of Health, USA)."}, "[4]": {"conditions": "50 mg/kg PO QD Day 0-13, Day 14"}, "[5]": {"conditions": "500 mg/kg PO QD Day 0-13, Day 14"}}, "note": "Entries after “also recorded” stand apart in the source; their conditions may differ."}
{"smiles": "CC/C=C\\CC(O)/C=C/C=C\\C/C=C\\C/C=C\\CCCC(=O)O", "note": "(stereo not drawn) [DS102, 15-hydroxy-eicosa-5Z,8Z,11Z,13E,17Z-pentaenoic acid]", "values": [{"measurement": "Left Kidney Weight", "setting": "[1]; [4]", "result": "469 ± 60", "unit": "mg"}, {"measurement": "Right Kidney Weight", "setting": "[1]; [4]", "result": "133 ± 10", "unit": "mg"}, {"measurement": "Left Kidney Weight", "setting": "[1]; [5]", "result": "487 ± 108", "unit": "mg"}, {"measurement": "Right Kidney Weight", "setting": "[1]; [5]", "result": "136 ± 6", "unit": "mg"}, {"measurement": "Triglycerides (median placebo-corrected % change from baseline)", "setting": "[2]; Week 16, Full Analysis Set", "result": "−40.2", "unit": "%"}, {"measurement": "Triglycerides (median placebo-corrected % change from baseline)", "setting": "[2]; Week 16, Subgroup: High Triglycerides (>200 mg/dL)", "result": "−20.4", "unit": "%"}, {"measurement": "Triglycerides (median placebo-corrected % change from baseline)", "setting": "[2]; Week 16, Subgroup: Triglycerides > Upper Limit Normal (>150 mg/dL)", "result": "−39.0", "unit": "%"}, {"measurement": "triglyceride levels", "setting": "[2]; NAFLD patients, Week 16", "result": "lowered"}, {"measurement": "lipid profile (total cholesterol, VLDL-C, non-HDL-C, RLP cholesterol, triglyceride levels)", "setting": "[2]; Week 16, safety analysis set (SAS)", "result": "significantly improved"}, {"measurement": "fibrosis area compared with the Vehicle group", "setting": "[3]; 50 mg/kg", "result": "tended to decrease; also recorded: reduction trend"}, {"measurement": "fibrosis area compared with the Vehicle group", "setting": "[3]; 500 mg/kg", "result": "tended to decrease; also recorded: reduction trend"}, {"measurement": "Sirius red-positive area", "setting": "[3]; [4]", "result": "5.01 ± 3.11", "unit": "%"}, {"measurement": "Sirius red-positive area (%) _Median", "setting": "[3]; 50 mg/kg PO QD Day 0-13, Day 14, median", "result": "4.19 ± 3.33", "unit": "%"}, {"measurement": "Sirius red-positive area", "setting": "[3]; [5]", "result": "4.01 ± 1.92", "unit": "%"}, {"measurement": "Sirius red-positive area (%) _Median", "setting": "[3]; 500 mg/kg PO QD Day 0-13, Day 14, median", "result": "3.08 ± 1.16", "unit": "%"}]}
